In ChEMBL document CHEMBL5244246, “Recent advances in chemistry and bioactivity of marine cyanobacteria Moorea species” (Eur J Med Chem, 2020):
pIC50, pKi: −log10 of the molar value. In brackets after ≈: the same amount, converted by molar mass. Several values for one entry are separate records, joined by “and”; a condition that tells them apart may be missing. Equal values may be shown once.

What was measured:
[1] = test system: Nitzschia amabilis; experiment: Growth inhibition of marine diatom assessed as inhibition rate at 10 ug/ml relative to control; assay type: functional
[2] = test system: N2a; experiment: Cytotoxicity against mouse Neuro2a cells assessed as inhibition of cell growth; assay type: functional, cell-based
[3] = test system: NCI-H460; experiment: Cytotoxicity against human NCI-H460 cells; assay type: functional, cell-based
[4] = test system: L1210; experiment: Cytotoxicity against mouse L1210 cells assessed as inhibition of cell growth at 10 ug/mL relative to control; assay type: functional; conditions: for inhibition at 10 µg/mL: Mus musculus, L1210, dose 10 µg/ml; for inhibition (INH): dose 10 µg/ml
[5] = Toxicity in brine shrimp assessed as lethal dose; conditions: artemia salina; read-out: LD50 (the source's name)
[6] = test system: MCF7; experiment: Cytotoxicity against human MCF7 cells assessed as inhibition of cell growth; assay type: functional, cell-based
[7] = test system: L1210; experiment: Cytotoxicity against mouse L1210 cells assessed as inhibition of cell growth; assay type: functional, cell-based
[8] = Toxicity in shrimp assessed as lethal dose; conditions: palaemon paucidens
[9] = target: Protein kinase C delta type (Homo sapiens, UniProt Q05655); experiment: Inhibition of [3H]-PDBu binding to PKCdelta C1B domain (unknown origin) by competitive binding assay
Chain of Protein kinase C delta type (Q05655 whole entry, the tested form may be a part): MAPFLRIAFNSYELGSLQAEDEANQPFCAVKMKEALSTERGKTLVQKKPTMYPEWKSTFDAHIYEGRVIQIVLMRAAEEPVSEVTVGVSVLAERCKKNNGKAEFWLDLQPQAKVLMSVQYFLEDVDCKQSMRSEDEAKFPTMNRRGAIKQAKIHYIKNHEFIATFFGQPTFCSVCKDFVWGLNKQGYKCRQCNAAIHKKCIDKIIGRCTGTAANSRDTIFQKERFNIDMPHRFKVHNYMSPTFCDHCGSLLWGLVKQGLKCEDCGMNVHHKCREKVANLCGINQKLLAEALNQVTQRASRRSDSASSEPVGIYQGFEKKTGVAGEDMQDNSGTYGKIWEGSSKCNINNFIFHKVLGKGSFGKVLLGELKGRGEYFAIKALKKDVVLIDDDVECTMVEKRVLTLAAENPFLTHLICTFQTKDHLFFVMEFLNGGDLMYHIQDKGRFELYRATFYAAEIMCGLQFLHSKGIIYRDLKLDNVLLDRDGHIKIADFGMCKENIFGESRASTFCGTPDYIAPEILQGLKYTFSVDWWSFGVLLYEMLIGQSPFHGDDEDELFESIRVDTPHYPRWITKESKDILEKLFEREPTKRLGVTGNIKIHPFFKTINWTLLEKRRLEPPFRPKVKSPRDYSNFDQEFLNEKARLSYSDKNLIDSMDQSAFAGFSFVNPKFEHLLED

[10] = test system: HeLa; experiment: Cytotoxicity against human HeLa cells assessed as inhibition of cell growth incubated for 48 hrs by WST-8 colorimetric assay; assay type: functional, cell-based
[11] = species: Homo sapiens; experiment: Inhibition of Voltage-gated sodium channel (unknown origin) at 3 ug/ml incubated for 18 hrs by cell-based bioassay relative to control; conditions: dose 3.0 µg/ml
[12] = test system: A549; experiment: Cytotoxicity against human A549 cells assessed as cell growth inhibition; assay type: functional, cell-based
[13] = test system: HT-29; experiment: Cytotoxicity against human HT-29 cells assessed as cell growth inhibition; assay type: functional
[14] = test system: MDA-MB-231; experiment: Cytotoxicity against human MDA-MB-231 cells assessed as cell growth inhibition; assay type: functional
[15] = test system: Mycobacterium tuberculosis; experiment: Antimycobacterial activity against Mycobacterium tuberculosis H37Rv assessed as inhibition of bacterial growth at 12.5 ug/ml relative to control; assay type: functional

CO[C@@H](CC[C@H](C)[C@H]1O[C@@]2(C[C@H](OC)[C@@H]1C)OC(CC(=O)O[C@@H]1CC(=O)O[C@@H]1C)=C(C)CC2(C)C)c1cc(O)ccc1Br
inhibition at 10 µg/mL [1]: 30%

CCCCCCCC[C@@H](C/C=C/CCC(=O)NC/C(=C/Cl)C1=CCCCC1=O)OC
pIC50 ([2]; Mus musculus, N2a): 6.31
pIC50 [3]: 5.96

CO[C@@H](CC[C@H](C)[C@H]1O[C@]23C[C@H](OC(=O)C[C@H]([C@@H](C)O)OC(=O)C(O)C(=C(C)CC2(C)C)O3)[C@@H]1C)c1cc(O)ccc1Br (stereo partly specified)
inhibition at 10 µg/mL [4]: 10%
inhibition (INH) [4]: 20%
inhibition at 10 µg/mL [1]: 30%

CO[C@@H](CC[C@H](C)[C@H]1O[C@@]23C[C@H](OC(=O)C[C@H]([C@@H](C)O)OC(=O)/C=C(\O2)[C@]2(CO2)CC3(C)C)[C@@H]1C)c1cc(O)ccc1Br
inhibition (INH) [4]: 10% and 25%
inhibition at 10 µg/mL [1]: 30%

CCC1CC(C)CC(=O)N(C)/C=C/CCC(C)C(=O)N[C@@H](C(C)C)C(=O)N(C)[C@@H](Cc2ccccc2)C(=O)N(C)[C@@H]([C@@H](C)O)C(=O)N(C)[C@@H](Cc2ccccc2)C(=O)O1 (stereo partly specified)
pIC50 ([2]; Mus musculus, N2a): 5.22
LC50 [5]: 9 µM

C=CC/C=C/N(C)C(=O)CCCCCCCC/C=C/[C@H](CSSC[C@@H](/C=C/CCCCCCCCC(=O)N(C)/C=C/CC=C)NC(C)=O)NC(C)=O
IC50 ([2]; Mus musculus, N2a): 1.4 µg/mL

O=c1ccn([C@H]2C[C@H](O)[C@@H](CO)O2)c(=O)n1CCc1ccccc1
IC50 [6]: 18.2 µg/mL (≈ 54.8 µM)

C=C[C@@](C)(CCC=C(C)C)c1ccc2c3c(c[nH]c13)C[C@@H](CO)NC(=O)[C@H](C(C)C)N2C
pIC50 [7]: 5.09
LD100 [8]: 5 mg/kg
pKi [9]: 9.96

CO[C@@H](CC[C@H](C)[C@H]1O[C@@]23C[C@H](OC(=O)C[C@H]([C@@H](C)O)OC(=O)/C=C(\O2)[C@@](C)(OO)CC3(C)C)[C@@H]1C)c1cccc(O)c1
inhibition at 10 µg/mL [4]: 10%

C=C[C@@](C)(CCC=C(C)C)c1ccc2c3c1NC(=O)[C@@]3(O)C[C@@H](CO)NC(=O)[C@@H](C(C)C)N2
pIC50 [7]: 3.49
LD33 [8]: 25 mg/kg
pKi [9]: 6.03

CC[C@@H](C)[C@H]1C(=O)N2CCC[C@H]2C(=O)O[C@H](C(C)(C)C)C[C@@H](C)C[C@H](O)[C@H](C)C2=N[C@@H](/C=C(\C)C(=O)N[C@@H](Cc3ccc(OCCCCCCCN=[N+]=[N-])cc3)C(=O)N(C)[C@@H](C)C(=O)N1C)CS2
pIC50 [10]: 7.10

CO[C@@H](CC[C@H](C)[C@H]1O[C@]23C[C@H](OC(=O)C[C@@H]([C@@H](C)O)OC(=O)CC(=C(C)CC2(C)C)O3)[C@@H]1C)c1cccc(O)c1
inhibition at 10 µg/mL [1]: 30%

CC(=O)n1c(=O)ccn([C@H]2C[C@H](O)[C@@H](CO)O2)c1=O
IC50 [6]: 18.2 µg/mL (≈ 67.3 µM)

CO[C@@H](CC[C@H](C)[C@H]1O[C@@]23C[C@H](OC(=O)C[C@@H]([C@@H](C)O)OC(=O)C[C@](OC)(O2)[C@H](C)CC3(C)C)[C@@H]1C)c1cc(O)ccc1Br
inhibition at 10 µg/mL [1]: 30%

COC(=O)C(CCCCCC(Cl)Cl)C(CCCC#CC=C(Cl)Cl)NC=O (stereo unspecified)
LC50 [5]: 1.7 µg/mL

CCCCCCCC[C@@H](C/C=C/CCC(=O)NC/C(=C/Cl)[C@]12O[C@H]1[C@H](OC(C)=O)CCC2=O)OC
pIC50 ([2]; Mus musculus, N2a): 5.40
pIC50 [3]: 5.40
inhibition [11]: 28%

CCC[C@H]1NC(=O)c2csc(n2)[C@H](C)NC(=O)[C@H](C(C)C)N(C)C(=O)[C@H](Cc2ccccc2)N(C)C(=O)[C@H](C)OC(=O)[C@@H]1C [ULONGAMIDE A]
pIC50 ([2]; n2a): 5.22 and 4.80
LC50 [5]: 18 µM

CC[C@@H](C)[C@H]1C(=O)N2CCC[C@H]2C(=O)O[C@H](C(C)(C)C)C[C@@H](C)C[C@H](O)[C@H](C)C2=N[C@@H](/C=C(\C)C(=O)N[C@@H](Cc3ccc(OCCCCCCCn4cc(-c5ccccc5)nn4)cc3)C(=O)N(C)[C@@H](C)C(=O)N1C)CS2
pIC50 [10]: 7.30

CO[C@@H](CC[C@H](C)C1O[C@@]2(C=C[C@@H]1C)[C@H](C(=O)O[C@@H]1CC(=O)O[C@@H]1C)C(=O)[C@H](C)CC2(C)C)c1cccc(O)c1 (stereo partly specified)
inhibition at 10 µg/mL [1]: 30%

CO[C@@H](CC[C@H](C)[C@H]1O[C@@]23C[C@H](OC(=O)C[C@H]([C@@H](C)O)OC(=O)/C=C(\O2)[C@@](C)(O)CC3(C)C)[C@@H]1C)c1cccc(O)c1
inhibition at 10 µg/mL [1]: 30%

CC[C@@H](C)[C@H]1C(=O)N2CCC[C@H]2C(=O)O[C@H](C(C)(C)C)C[C@@H](C)C[C@H](O)[C@@H](C)C2=N[C@@H](/C=C(\C)C(=O)N[C@@H](Cc3ccc(OC)cc3)C(=O)N(C)[C@@H](C)C(=O)N1C)CS2
pIC50 [10]: 6.72

C=C(CCNC(=O)CC/C=C/C[C@H](CCCCCCCC)OC)[C@@]12O[C@H]1[C@H](O[C@H]1OC[C@H](OC)[C@@H](O)[C@@H]1OC)C=C(C)C2=O
pIC50 ([2]; Mus musculus, N2a): 5.40
pIC50 [3]: 5.40
inhibition [11]: 28%

COC(=O)C(CCCCCC(Cl)Cl)C(CCCC#C/C=C/Cl)NC=O (stereo unspecified)
LC50 [5]: 1.7 µg/mL

CCCCCCC[C@@H](C/C=C/CCC(=O)N(C)C/C(=C/Cl)C/C(=C\C(=O)N1CC(O)CC1=O)OC)OC (stereo partly specified)
GI50 [12]: 40 µM
GI50 [13]: 40 µM
GI50 [14]: 40 µM
inhibition at 12.5 µg/mL [15]: 10%
